Test results published in patent US20240329043A1, “METHOD FOR STRATIFICATION AND TREATMENT OF MULTIPLE SCLEROSIS” (Universität Zurich, priority 2021, published 2024).

Tests used:
[1] = tested on: CSF-infiltrating CD4+ T cells from MS patients; settings: peptide 10 μM; 105 MS patients, quadruplicates; well positive if IFN-γ≥20 pg/ml
Experimental: 6×10^4 PHA-expanded CSF-infiltrating CD4^+ T cells were seeded in quadruplicate with 2×10^5 irradiated autologous PBMCs as antigen presenting cells and stimulated with peptides (Table 2) at a final concentration of 10 μM and with a T Cell Activation Kit (anti-CD3, anti-CD28, anti-CD2 beads) (Miltenyi Biotec) as positive control.
(§1) Release of IFN-γ was measured using the ELISA MAX™ Deluxe Set Human IFN-γ (Biolegend, San Diego, CA, USA) according to the manufacturer's instructions. A well was considered positive if IFN-γ≥20 pg/ml and a patient was considered positive for a peptide if the mean IFN-γ of the four wells was ≥20 pg/ml and at least 3 of the 4 wells were positive.

[2] = tested on: CSF-infiltrating CD4+ T cells from MS patients; settings: peptide 10 μM, 105 MS patients; for Positive wells % Proliferation: quadruplicates (420 wells per peptide), well positive if SI≥2, 72 h; for Positive patients % Proliferation: patient positive if mean SI of four wells ≥2 and at least 3 of four wells SI≥2
Experimental: CSF-infiltrating CD4+ T cells were expanded with PHA in a single round of stimulation using a previously reported protocol aimed to reduce TCR repertoire bias (Planas et al., 2008, Sci Transl Med, 10(462):eaat4301). 6×10^4 PHA-expanded CSF-infiltrating CD4^+ T cells were seeded in quadruplicate with 2×10^5 irradiated autologous PBMCs as antigen presenting cells and stimulated with peptides (Table 2) at a final concentration of 10 μM and with a T Cell Activation Kit (anti-CD3, anti-CD28, anti-CD2 beads) (Miltenyi Biotec) as positive control.
(§2) Proliferation was measured 72 h after stimulation using 3H-thymidine (Hartmann Analytic, Braunschweig, Germany) as previously reported (Planas et al., 2018). The stimulation index of single wells (SI) was calculated as follows: SI=(cpm well with peptide)/(Mean cpm wells without peptide). A well was considered positive if SI≥2.

[3] = tested on: CSF-infiltrating CD4+ T cells from MS patients; experiment: Reactivity of CSF-infiltrating CD4+ T cells by proliferation and/or IFN-γ release taken together (responder classification, comparison of readouts); settings: of 105 MS patients; main or only reactivity in proliferation and/or IFN-γ release
Experimental: PBMCs were freshly isolated using Ficoll (Eurobio, Germany) density gradient centrifugation. CSF-infiltrating CD4+ T cells were expanded with PHA in a single round of stimulation using a previously reported protocol aimed to reduce TCR repertoire bias (Planas et al., 2008, Sci Transl Med, 10(462):eaat4301). 6×10^4 PHA-expanded CSF-infiltrating CD4^+ T cells were seeded in quadruplicate with 2×10^5 irradiated autologous PBMCs as antigen presenting cells and stimulated with peptides (Table 2) at a final concentration of 10 μM and with a T Cell Activation Kit (anti-CD3, anti-CD28, anti-CD2 beads) (Miltenyi Biotec) as positive control.
as §2, §1

| Sequence | Positive wells % IFNγ release [1] | Positive wells % Proliferation [2] | Positive patients % Proliferation [2] | Patients classified as responders to the peptide(s) [3] |
| --- | --- | --- | --- | --- |
| AQGTLSKIFKLGGRDSRSGSPMARR (listed as Homo sapiens) [MBP (146-170)] | 3.86% | 0.72% | 0.00% | – |
| EEDEVSIKEAAEAVV (listed as Homo sapiens) [GDP-L-FS (246-260)] | 8.85% | 6.90% | 4.76% | – |
| FRFTPFKQAVKETCA (listed as Homo sapiens) [GDP-L-FS (296-310)] | 12.65% | 6.43% | 4.76% | – |
| GQFRVIGPRHPIRALVGDEV (listed as Homo sapiens) [MOG (1-20)] | 4.58% | 1.20% | 0.00% | – |
| HCLGKWLGHPDKFVGI (listed as Homo sapiens) [PLP (139-154)] | 3.86% | 1.92% | 0.96% | – |
| KYLATASTMDHARHGFLPRH (listed as Homo sapiens) [MBP (13-32)] | 4.34% | 0.72% | 0.00% | – |
| LSRFSWGAEGQRPGFGYGG (listed as Homo sapiens) [MBP (111-129)] | 6.75% | 1.20% | 0.96% | – |
| MEVGWYRPPFSRVVHLYRNGK (listed as Homo sapiens) [MOG (35-55)] | 13.49% | 3.61% | 1.92% | 10.4% |
| PHNSNFGYSYAKRMI (listed as Homo sapiens) [GDP-L-FS (136-150)] | 8.35% | 7.14% | 5.71% | – |
| TAQTRALFEKVQPTH (listed as Homo sapiens) [GDP-L-FS (51-65)] | 7.16% | 5.48% | 3.80% | – |
| YGCTFTAVIPTNVFG (listed as Homo sapiens) [GDP-L-FS (161-175)] | 6.92% | 7.38% | 6.66% | – |
